From patent US20260356819A1, “OXOISOINDOLINYL-SUBSTITUTED […] DERIVATIVE AND USE THEREOF” (GLUETACS THERAPEUTICS (SHANGHAI) CO., LTD., priority 2023, published 2026)

How the values were obtained:
Format in all cases: cell-based
Details in all cases: compounds at 50 nM and 500 nM
[1] = biological target: T1, CK1α (Homo sapiens, UniProt P48729+Q96SW2); test: Western blot degradation of CK1α in hPBMCs (24 h)
T1 construct: The supernatant was aspirated as the extracted total cell protein; endogenous in cells; host or cells: human peripheral blood mononuclear cells (hPBMCs)
T1 sequence (P48729 whole entry): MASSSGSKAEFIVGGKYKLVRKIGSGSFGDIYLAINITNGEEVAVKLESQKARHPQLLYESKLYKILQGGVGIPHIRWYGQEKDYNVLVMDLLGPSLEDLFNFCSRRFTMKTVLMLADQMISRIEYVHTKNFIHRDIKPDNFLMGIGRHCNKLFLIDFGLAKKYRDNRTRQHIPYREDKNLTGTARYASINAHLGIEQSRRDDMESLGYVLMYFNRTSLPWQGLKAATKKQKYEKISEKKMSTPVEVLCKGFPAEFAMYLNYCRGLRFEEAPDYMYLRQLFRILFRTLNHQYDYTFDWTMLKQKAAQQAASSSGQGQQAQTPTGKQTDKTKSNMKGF
T1 sequence (Q96SW2 whole entry): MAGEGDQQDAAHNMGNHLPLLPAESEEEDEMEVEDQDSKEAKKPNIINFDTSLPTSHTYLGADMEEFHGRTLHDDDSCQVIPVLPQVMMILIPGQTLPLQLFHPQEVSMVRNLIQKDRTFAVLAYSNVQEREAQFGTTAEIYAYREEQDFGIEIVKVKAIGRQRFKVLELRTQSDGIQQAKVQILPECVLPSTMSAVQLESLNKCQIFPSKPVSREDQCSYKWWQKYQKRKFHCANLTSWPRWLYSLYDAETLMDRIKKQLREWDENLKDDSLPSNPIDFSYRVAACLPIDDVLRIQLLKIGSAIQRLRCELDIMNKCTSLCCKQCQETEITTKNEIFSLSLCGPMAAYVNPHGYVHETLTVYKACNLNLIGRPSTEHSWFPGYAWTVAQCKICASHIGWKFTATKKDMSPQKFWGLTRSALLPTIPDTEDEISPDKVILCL
T1 sequence (Q16531 whole entry partner): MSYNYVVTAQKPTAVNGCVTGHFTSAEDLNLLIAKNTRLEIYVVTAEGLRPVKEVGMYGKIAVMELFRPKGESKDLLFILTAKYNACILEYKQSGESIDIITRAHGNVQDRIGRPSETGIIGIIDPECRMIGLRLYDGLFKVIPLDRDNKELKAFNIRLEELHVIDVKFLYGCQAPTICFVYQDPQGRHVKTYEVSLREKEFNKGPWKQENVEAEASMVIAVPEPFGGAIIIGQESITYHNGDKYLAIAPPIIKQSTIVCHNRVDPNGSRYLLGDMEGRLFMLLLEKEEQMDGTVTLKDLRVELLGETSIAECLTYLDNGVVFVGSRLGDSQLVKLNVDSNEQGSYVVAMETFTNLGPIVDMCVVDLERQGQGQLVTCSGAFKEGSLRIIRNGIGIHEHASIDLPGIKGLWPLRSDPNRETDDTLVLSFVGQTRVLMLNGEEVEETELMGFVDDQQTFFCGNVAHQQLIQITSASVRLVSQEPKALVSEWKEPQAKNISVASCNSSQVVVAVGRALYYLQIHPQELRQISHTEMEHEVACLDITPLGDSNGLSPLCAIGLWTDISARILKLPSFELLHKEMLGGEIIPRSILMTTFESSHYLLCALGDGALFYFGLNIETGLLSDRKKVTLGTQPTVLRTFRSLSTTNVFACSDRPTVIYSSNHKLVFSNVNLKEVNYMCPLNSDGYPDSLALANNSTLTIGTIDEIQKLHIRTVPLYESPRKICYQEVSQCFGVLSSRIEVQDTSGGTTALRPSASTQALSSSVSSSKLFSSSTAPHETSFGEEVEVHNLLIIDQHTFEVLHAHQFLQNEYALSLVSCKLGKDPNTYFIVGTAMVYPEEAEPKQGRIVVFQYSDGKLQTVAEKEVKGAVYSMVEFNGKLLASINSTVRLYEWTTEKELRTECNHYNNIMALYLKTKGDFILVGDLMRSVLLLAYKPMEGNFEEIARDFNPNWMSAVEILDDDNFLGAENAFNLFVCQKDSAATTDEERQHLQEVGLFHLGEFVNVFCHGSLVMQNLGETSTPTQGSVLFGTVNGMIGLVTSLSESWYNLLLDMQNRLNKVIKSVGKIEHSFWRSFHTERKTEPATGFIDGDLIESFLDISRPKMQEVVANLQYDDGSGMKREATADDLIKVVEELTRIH
How it was run: (§1)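 Western blot densitometry after 24 h treatment of human PBMCs (1×10^6 cells/mL) with 50 nM or 500 nM compound. Remaining target (%) = band intensity over internal-control band, normalized to DMSO; degradation = 1 − remaining; DC50 is the concentration giving half the DMSO band signal.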

[2] = biological target: T2, WEE1 (Homo sapiens, UniProt P30291+Q96SW2); test: Western blot degradation of WEE1 in hPBMCs (24 h)
T2 construct: The supernatant was aspirated as the extracted total cell protein; endogenous in cells; host or cells: human peripheral blood mononuclear cells (hPBMCs)
How it was run: as §1

[3] = biological target: T3, GSPT1 (Homo sapiens, UniProt P15170+Q96SW2); test: Western blot degradation of GSPT1 in hPBMCs (24 h)
T3 construct: The supernatant was aspirated as the extracted total cell protein; endogenous in cells; host or cells: human peripheral blood mononuclear cells (hPBMCs)
T3 sequence (P15170 whole entry): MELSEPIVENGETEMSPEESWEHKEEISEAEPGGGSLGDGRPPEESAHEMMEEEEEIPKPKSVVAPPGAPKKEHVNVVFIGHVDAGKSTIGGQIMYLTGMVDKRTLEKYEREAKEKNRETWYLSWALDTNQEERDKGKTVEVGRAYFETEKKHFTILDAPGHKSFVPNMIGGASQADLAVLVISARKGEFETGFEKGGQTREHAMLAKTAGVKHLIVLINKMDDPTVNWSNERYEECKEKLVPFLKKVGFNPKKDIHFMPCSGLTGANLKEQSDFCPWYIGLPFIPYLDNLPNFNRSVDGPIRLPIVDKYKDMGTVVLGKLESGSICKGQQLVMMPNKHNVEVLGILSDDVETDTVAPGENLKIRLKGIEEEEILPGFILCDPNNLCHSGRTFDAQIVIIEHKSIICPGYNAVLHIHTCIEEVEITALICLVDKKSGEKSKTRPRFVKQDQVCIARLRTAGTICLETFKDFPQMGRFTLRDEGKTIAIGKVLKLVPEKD
T3 sequence (Q96SW2 whole entry): as the sequence (Q96SW2 whole entry) above
T3 sequence (Q16531 whole entry partner): as the sequence (Q16531 whole entry partner) above
How it was run: as §1

[4] = biological target: T4, IKZF3 (Homo sapiens, UniProt Q96SW2+Q9UKT9); test: Western blot degradation of IKZF3 in hPBMCs (24 h)
T4 construct: The supernatant was aspirated as the extracted total cell protein; endogenous in cells; host or cells: human peripheral blood mononuclear cells (hPBMCs)
T4 sequence (Q9UKT9 whole entry): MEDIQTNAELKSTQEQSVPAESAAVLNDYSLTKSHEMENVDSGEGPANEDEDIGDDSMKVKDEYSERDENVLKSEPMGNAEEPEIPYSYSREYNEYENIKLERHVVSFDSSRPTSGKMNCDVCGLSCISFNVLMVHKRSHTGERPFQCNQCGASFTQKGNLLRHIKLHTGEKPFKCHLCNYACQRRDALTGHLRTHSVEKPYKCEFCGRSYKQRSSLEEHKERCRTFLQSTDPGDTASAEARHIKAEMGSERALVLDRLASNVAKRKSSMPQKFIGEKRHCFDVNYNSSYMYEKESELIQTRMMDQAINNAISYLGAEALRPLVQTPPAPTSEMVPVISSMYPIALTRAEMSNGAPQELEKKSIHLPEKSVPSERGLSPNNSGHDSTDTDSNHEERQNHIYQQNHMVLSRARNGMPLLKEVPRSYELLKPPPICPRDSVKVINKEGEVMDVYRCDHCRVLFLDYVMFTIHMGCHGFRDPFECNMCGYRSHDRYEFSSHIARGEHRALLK
T4 sequence (Q96SW2 whole entry): as the sequence (Q96SW2 whole entry) above
T4 sequence (Q16531 whole entry partner): as the sequence (Q16531 whole entry partner) above
How it was run: as §1

[5] = biological target: T5, IKZF1 (Homo sapiens, UniProt Q13422+Q96SW2); test: Western blot degradation of IKZF1 in hPBMCs (24 h)
T5 construct: The supernatant was aspirated as the extracted total cell protein; endogenous in cells; host or cells: human peripheral blood mononuclear cells (hPBMCs)
T5 sequence (Q13422 whole entry): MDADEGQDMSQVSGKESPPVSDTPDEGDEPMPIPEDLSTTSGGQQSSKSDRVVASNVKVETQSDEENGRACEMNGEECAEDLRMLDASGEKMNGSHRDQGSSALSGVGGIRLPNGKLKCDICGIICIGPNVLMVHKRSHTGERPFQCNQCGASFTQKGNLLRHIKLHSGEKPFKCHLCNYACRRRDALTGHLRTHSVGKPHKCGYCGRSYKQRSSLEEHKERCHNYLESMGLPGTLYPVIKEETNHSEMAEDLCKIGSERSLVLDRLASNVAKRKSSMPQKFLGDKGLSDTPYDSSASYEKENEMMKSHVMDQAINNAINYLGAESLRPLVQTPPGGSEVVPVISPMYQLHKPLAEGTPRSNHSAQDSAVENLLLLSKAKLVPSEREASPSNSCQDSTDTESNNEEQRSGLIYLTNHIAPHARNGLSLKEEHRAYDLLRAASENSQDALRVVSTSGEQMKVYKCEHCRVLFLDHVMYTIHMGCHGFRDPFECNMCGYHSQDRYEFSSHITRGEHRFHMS
T5 sequence (Q96SW2 whole entry): as the sequence (Q96SW2 whole entry) above
T5 sequence (Q16531 whole entry partner): as the sequence (Q16531 whole entry partner) above
How it was run: as §1

[6] = biological target: T6, IKZF2 (Homo sapiens, UniProt Q96SW2+Q9UKS7); test: Western blot degradation of IKZF2 in hPBMCs (24 h)
T6 construct: The supernatant was aspirated as the extracted total cell protein; endogenous in cells; host or cells: human peripheral blood mononuclear cells (hPBMCs)
T6 sequence (Q9UKS7 whole entry): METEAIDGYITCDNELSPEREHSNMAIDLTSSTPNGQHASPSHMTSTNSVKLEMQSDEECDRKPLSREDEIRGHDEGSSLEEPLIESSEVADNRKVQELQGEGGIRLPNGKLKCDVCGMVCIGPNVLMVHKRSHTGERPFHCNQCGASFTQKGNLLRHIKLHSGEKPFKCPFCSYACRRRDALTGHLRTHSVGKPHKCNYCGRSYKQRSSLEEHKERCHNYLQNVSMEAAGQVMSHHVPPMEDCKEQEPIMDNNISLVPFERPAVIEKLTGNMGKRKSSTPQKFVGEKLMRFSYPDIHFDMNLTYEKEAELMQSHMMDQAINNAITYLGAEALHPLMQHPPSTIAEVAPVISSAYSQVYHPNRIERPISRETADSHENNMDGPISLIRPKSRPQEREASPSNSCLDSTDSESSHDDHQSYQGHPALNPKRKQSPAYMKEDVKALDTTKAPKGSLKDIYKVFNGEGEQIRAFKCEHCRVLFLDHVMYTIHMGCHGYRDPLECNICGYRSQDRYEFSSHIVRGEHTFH
T6 sequence (Q96SW2 whole entry): as the sequence (Q96SW2 whole entry) above
T6 sequence (Q16531 whole entry partner): as the sequence (Q16531 whole entry partner) above
How it was run: as §1

Compound: O=C1CCN(N2C(=O)c3ccc(CN4CC5CCC(C4)N5C(c4ccccc4)c4ccccc4)cc3C2=O)C(=O)N1 [GT-06453, 5-((8-benzhydryl-3,8-diazabicyclo[3.2.1]octan-3-yl)methyl)-2-(2,4-dioxotetrahydropyrimidin-1(2H)-yl)isoindoline-1,3-dione]
- CK1α substrate protein remaining % [1]: B (80%< substrate protein remaining % ≤100%)
- WEE1 substrate protein remaining % [2]: B (80%< substrate protein remaining % ≤100%)
- GSPT1 substrate protein remaining % [3]: B (80%< substrate protein remaining % ≤100%)
- IKZF3 substrate protein remaining % [4]: B (80%< substrate protein remaining % ≤100%)
- IKZF1 substrate protein remaining % [5]: B (80%< substrate protein remaining % ≤100%)
- IKZF2 substrate protein remaining % [6]: A (0% ≤ substrate protein remaining % ≤80%)

Compound: O=C1CCN(N2Cc3cc(CN4C5CCC4CN(C(c4ccccc4)c4ccccc4)C5)ccc3C2=O)C(=O)N1 [GT-06454, 1-(5-((3-benzhydryl-3,8-diazabicyclo[3.2.1]octan-8-yl)methyl)-1-oxoisoindolin-2-yl)dihydropyrimidine-2,4(1H,3H)-dione]
- CK1α substrate protein remaining % [1]: B (80%< substrate protein remaining % ≤100%)
- WEE1 substrate protein remaining % [2]: A (0% ≤ substrate protein remaining % ≤80%)
- GSPT1 substrate protein remaining % [3]: B (80%< substrate protein remaining % ≤100%)
- IKZF3 substrate protein remaining % [4]: B (80%< substrate protein remaining % ≤100%)
- IKZF1 substrate protein remaining % [5]: B (80%< substrate protein remaining % ≤100%)
- IKZF2 substrate protein remaining % [6]: B (80%< substrate protein remaining % ≤100%)

Compound: O=C1CCN(N2C(=O)c3ccc(CN4C5CCC4CN(C(c4ccccc4)c4ccccc4)C5)cc3C2=O)C(=O)N1 [GT-06455, 5-((3-benzhydryl-3,8-diazabicyclo[3.2.1]octan-8-yl)methyl)-2-(2,4-dioxotetrahydropyrimidin-1(2H)-yl)isoindoline-1,3-dione]
- CK1α substrate protein remaining % [1]: B (80%< substrate protein remaining % ≤100%)
- WEE1 substrate protein remaining % [2]: A (0% ≤ substrate protein remaining % ≤80%)
- GSPT1 substrate protein remaining % [3]: B (80%< substrate protein remaining % ≤100%)
- IKZF3 substrate protein remaining % [4]: B (80%< substrate protein remaining % ≤100%)
- IKZF1 substrate protein remaining % [5]: B (80%< substrate protein remaining % ≤100%)
- IKZF2 substrate protein remaining % [6]: B (80%< substrate protein remaining % ≤100%)

Compound: CC1(C)CCC(CN2CC3CC(C2)N3Cc2ccc3c(c2)C(=O)N(N2CCC(=O)NC2=O)C3=O)=C(c2ccc(Cl)cc2)C1 [GT-06457, 5-((3-((4′-chloro-5,5-dimethyl-3,4,5,6-tetrahydro-[1,1′-biphenyl]-2-yl)methyl)-3,6-diazabicyclo[3.1.1]heptan-6-yl)methyl)-2-(2,4-dioxotetrahydropyrimidin-1(2H)-yl)isoindoline-1,3-dione]
- CK1α substrate protein remaining % [1]: A (0% ≤ substrate protein remaining % ≤80%)
- WEE1 substrate protein remaining % [2]: A (0% ≤ substrate protein remaining % ≤80%)
- GSPT1 substrate protein remaining % [3]: A (0% ≤ substrate protein remaining % ≤80%)
- IKZF3 substrate protein remaining % [4]: A (0% ≤ substrate protein remaining % ≤80%)
- IKZF1 substrate protein remaining % [5]: A (0% ≤ substrate protein remaining % ≤80%)
- IKZF2 substrate protein remaining % [6]: A (0% ≤ substrate protein remaining % ≤80%)

Compound: CC1(C)CCC(CN2C3CC2CN(Cc2ccc4c(c2)CN(N2CCC(=O)NC2=O)C4=O)C3)=C(c2ccc(Cl)cc2)C1 [GT-06458, 1-(5-((6-((4′-chloro-5,5-dimethyl-3,4,5,6-tetrahydro-[1,1′-biphenyl]-2-yl)methyl)-3,6-diazabicyclo[3.1.1]heptan-3-yl)methyl)-1-oxoisoindolin-2-yl)dihydropyrimidine-2,4(1H,3H)-dione]
- CK1α substrate protein remaining % [1]: A (0% ≤ substrate protein remaining % ≤80%)
- WEE1 substrate protein remaining % [2]: A (0% ≤ substrate protein remaining % ≤80%)
- GSPT1 substrate protein remaining % [3]: A (0% ≤ substrate protein remaining % ≤80%)
- IKZF3 substrate protein remaining % [4]: A (0% ≤ substrate protein remaining % ≤80%)
- IKZF1 substrate protein remaining % [5]: A (0% ≤ substrate protein remaining % ≤80%)
- IKZF2 substrate protein remaining % [6]: A (0% ≤ substrate protein remaining % ≤80%)

Compound: CC1(C)CCC(CN2C3CC2CN(Cc2ccc4c(c2)C(=O)N(N2CCC(=O)NC2=O)C4=O)C3)=C(c2ccc(Cl)cc2)C1 [GT-06459, 5-((6-((4′-chloro-5,5-dimethyl-3,4,5,6-tetrahydro-[1,1′-biphenyl]-2-yl)methyl)-3,6-diazabicyclo[3.1.1]heptan-3-yl)methyl)-2-(2,4-dioxotetrahydropyrimidin-1(2H)-yl)isoindoline-1,3-dione]
- CK1α substrate protein remaining % [1]: A (0% ≤ substrate protein remaining % ≤80%)
- WEE1 substrate protein remaining % [2]: A (0% ≤ substrate protein remaining % ≤80%)
- GSPT1 substrate protein remaining % [3]: A (0% ≤ substrate protein remaining % ≤80%)
- IKZF3 substrate protein remaining % [4]: A (0% ≤ substrate protein remaining % ≤80%)
- IKZF1 substrate protein remaining % [5]: A (0% ≤ substrate protein remaining % ≤80%)
- IKZF2 substrate protein remaining % [6]: A (0% ≤ substrate protein remaining % ≤80%)

Compound: O=C1CCN(N2Cc3cc(CN4CCN(c5cccc(F)c5)CC4)ccc3C2=O)C(=O)N1 [GT-06701, 1-(5-((4-(3-fluorophenyl)piperazin-1-yl)methyl)-1-oxoisoindolin-2-yl)dihydropyrimidine-2,4(1H,3H)-dione]
- CK1α substrate protein remaining % [1]: A (0% ≤ substrate protein remaining % ≤80%)
- WEE1 substrate protein remaining % [2]: B (80%< substrate protein remaining % ≤100%)
- GSPT1 substrate protein remaining % [3]: A (0% ≤ substrate protein remaining % ≤80%)
- IKZF3 substrate protein remaining % [4]: B (80%< substrate protein remaining % ≤100%)
- IKZF1 substrate protein remaining % [5]: B (80%< substrate protein remaining % ≤100%)
- IKZF2 substrate protein remaining % [6]: B (80%< substrate protein remaining % ≤100%)

Compound: O=C1CCN(N2C(=O)c3ccc(CN4CCN(c5ccccc5)CC4)cc3C2=O)C(=O)N1 [GT-06719, 2-(2,4-dioxotetrahydropyrimidin-1(2H)-yl)-5-((4-phenylpiperazin-1-yl)methyl)isoindoline-1,3-dione]
- CK1α substrate protein remaining % [1]: B (80%< substrate protein remaining % ≤100%)
- WEE1 substrate protein remaining % [2]: B (80%< substrate protein remaining % ≤100%)
- GSPT1 substrate protein remaining % [3]: B (80%< substrate protein remaining % ≤100%)
- IKZF3 substrate protein remaining % [4]: A (0% ≤ substrate protein remaining % ≤80%)
- IKZF1 substrate protein remaining % [5]: B (80%< substrate protein remaining % ≤100%)
- IKZF2 substrate protein remaining % [6]: B (80%< substrate protein remaining % ≤100%)

Compound: COc1ccccc1N1CCN(Cc2ccc3c(c2)C(=O)N(N2CCC(=O)NC2=O)C3=O)CC1 [GT-06720, 2-(2,4-dioxotetrahydropyrimidin-1(2H)-yl)-5-((4-(2-methoxyphenyl)piperazin-1-yl)methyl)isoindoline-1,3-dione]
- CK1α substrate protein remaining % [1]: B (80%< substrate protein remaining % ≤100%)
- WEE1 substrate protein remaining % [2]: B (80%< substrate protein remaining % ≤100%)
- GSPT1 substrate protein remaining % [3]: B (80%< substrate protein remaining % ≤100%)
- IKZF3 substrate protein remaining % [4]: A (0% ≤ substrate protein remaining % ≤80%)
- IKZF1 substrate protein remaining % [5]: B (80%< substrate protein remaining % ≤100%)
- IKZF2 substrate protein remaining % [6]: B (80%< substrate protein remaining % ≤100%)

Compound: COc1cccc(N2CCN(Cc3ccc4c(c3)C(=O)N(N3CCC(=O)NC3=O)C4=O)CC2)c1 [GT-06721, 2-(2,4-dioxotetrahydropyrimidin-1(2H)-yl)-5-((4-(3-methoxyphenyl)piperazin-1-yl)methyl)isoindoline-1,3-dione]
- CK1α substrate protein remaining % [1]: B (80%< substrate protein remaining % ≤100%)
- WEE1 substrate protein remaining % [2]: B (80%< substrate protein remaining % ≤100%)
- GSPT1 substrate protein remaining % [3]: B (80%< substrate protein remaining % ≤100%)
- IKZF3 substrate protein remaining % [4]: A (0% ≤ substrate protein remaining % ≤80%)
- IKZF1 substrate protein remaining % [5]: A (0% ≤ substrate protein remaining % ≤80%)
- IKZF2 substrate protein remaining % [6]: A (0% ≤ substrate protein remaining % ≤80%)

Compound: O=C1CCN(N2C(=O)c3ccc(CN4CCN(c5cccc(Br)c5)CC4)cc3C2=O)C(=O)N1 [GT-06722, 5-((4-(3-bromophenyl)piperazin-1-yl)methyl)-2-(2,4-dioxotetrahydropyrimidin-1(2H)-yl)isoindoline-1,3-dione]
- CK1α substrate protein remaining % [1]: A (0% ≤ substrate protein remaining % ≤80%)
- WEE1 substrate protein remaining % [2]: A (0% ≤ substrate protein remaining % ≤80%)
- GSPT1 substrate protein remaining % [3]: B (80%< substrate protein remaining % ≤100%)
- IKZF3 substrate protein remaining % [4]: A (0% ≤ substrate protein remaining % ≤80%)
- IKZF1 substrate protein remaining % [5]: A (0% ≤ substrate protein remaining % ≤80%)
- IKZF2 substrate protein remaining % [6]: B (80%< substrate protein remaining % ≤100%)

Compound: O=C1CCN(N2C(=O)c3ccc(CN4CCN(c5cccc(F)c5)CC4)cc3C2=O)C(=O)N1 [GT-06724, 2-(2,4-dioxotetrahydropyrimidin-1(2H)-yl)-5-((4-(3-fluorophenyl)piperazin-1-yl)methyl)isoindoline-1,3-dione]
- CK1α substrate protein remaining % [1]: B (80%< substrate protein remaining % ≤100%)
- WEE1 substrate protein remaining % [2]: A (0% ≤ substrate protein remaining % ≤80%)
- GSPT1 substrate protein remaining % [3]: B (80%< substrate protein remaining % ≤100%)
- IKZF3 substrate protein remaining % [4]: B (80%< substrate protein remaining % ≤100%)
- IKZF1 substrate protein remaining % [5]: A (0% ≤ substrate protein remaining % ≤80%)
- IKZF2 substrate protein remaining % [6]: B (80%< substrate protein remaining % ≤100%)
